Measured values: patent US7070813B2, “Preventative and treatment effects of morinda citrifolia as a colon cancer cell growth inhibitor” (priority 2001, dated 2006)

System: human colon tumor cell line DLD-1
Test: cells
Type: cell-based
Conditions: for Percent Growth (Mean ± SEM, n = 2): 72 h exposure
Method: A colon tumor assay was used to detect changes in cell proliferation based on the ability of viable cells to cause alamarBlue to change from its oxidized state (non-fluorescent, blue) to a reduced (fluorescent, red) form. With the results obtained from the alamarBlue reaction, cell proliferation can be quantified and metabolic activity of viable cells can be examined. MDA-1 (a processed Morinda citrifolia product) was tested for its effect upon the proliferation of human colon tumor cell line (or DLD-1), and at five final assay concentrations from 10% to […] through 2-fold serial dilutions.
The MDA-1 test compound, or Morinda citrifolia fruit juice, was used for in vitro anti-tumor studies. The test compound was in liquid form and diluted with phosphate-buffered saline to obtain initial working solutions. […]
The human colon tumor cell line of DLD-1 was obtained from American Type Culture Collection (ATCC CCL-221). The culture was used with RPMI 1640, 90%; Fetal Bovine Serum, 10% and supplemented with 1% Antibiotic-Antimycotic and the cells were incubated in an atmosphere containing 5% CO2 at 37 degrees Celsius.
In the evaluation of anti-proliferation for test substances, […].
Mean Ftime0=The average of two measured fluorescent intensities of reduced alamarBlue at the time just before exposure of cells to the test substance.
Mean Ftest=The average of two measured fluorescent intensities of alamarBlue after seventy-two hour exposure of cells to the test substance.
Mean Fctrl=The average of two measured fluorescent intensities of alamarBlue after seventy-two hour incubation without the test substance.
Mean Fblank=The average of two measured fluorescent intensities of alamarBlue in medium without cells after seventy-two hour incubation.
A decrease of fifty percent or more (≧50%) in fluorescent intensity relative to vehicle-treated control indicated significant cell growth inhibition, cytostatic or cytotoxic activity, and a semi-quantitative IC50, TGI and LC50 were then determined by nonlinear regression using GraphPad Prism (GraphPad Software, USA).
TGI (Total Growth Inhibition): Test compound concentration where the number or mass of treated cells at the end of experiment was equal to that at time0.
A semi-quantitative determination of IC50, TGI and LC50 was carried out by nonlinear regression analysis using GraphPad Prism (GraphPad Software, USA).

Structure (SMILES): CO[C@@]12[C@H](COC(N)=O)C3=C(C(=O)C(C)=C(N)C3=O)N1C[C@@H]1N[C@@H]12 [Mitomycin]
- activity of standard reference agent (growth inhibition) (DLD-1, at <10 μM): Significant activity
- Percent Growth (Mean ± SEM, n = 2) (DLD-1, concentration 0.001 μM): 95 ± 5
- Percent Growth (Mean ± SEM, n = 2) (DLD-1, concentration 0.01 μM): 103 ± 6
- Percent Growth (Mean ± SEM, n = 2) (DLD-1, concentration 0.1 μM): 60 ± 7
- Percent Growth (Mean ± SEM, n = 2) (DLD-1, concentration 1 μM): 35 ± 4
- Percent Growth (Mean ± SEM, n = 2) (DLD-1, concentration 10 μM): −50 ± 8
- Estimated TGI (Total Growth Inhibition) (DLD-1, semi-quantitative, nonlinear regression): 2200 nM
- IC50 (Homo sapiens, DLD-1, semi-quantitative, nonlinear regression, read-out: Estimated IC50 (50% Inhibition Concentration)): 380 nM
